Experimental findings from patent publication US4285939A, “Cephalosporin derivatives, and antibacterial drugs containing the derivatives” (Eisai Co., Ltd., priority 1979, dated 1981) are described below.

Series [1] deals with Staphylococcus aureus 209P. In words: Minimal inhibitory concentration, standard agar dilution method (Staphylococcus aureus). The format is cell-based. The method, then: (§1) Minimal inhibitory concentration (MIC) was determined by the standard agar dilution method of the Japan Society of Chemotherapy.
(§2) The compounds described in Examples 1, 2 and 5 were dissolved in sterilized water; the compound described in Example 4 was dissolved in acetone-water (1:1); and the control compounds, cephaloglycin and cephalexin monohydrate, were dissolved in a 3% sodium hydrogen carbonate solution.
(§3) Serial two-fold dilutions were made from the above solutions.
(§4) One-ml aliquots of each dilution were mixed with 9 ml of Heart influsion agar in petri-dishes to make agar plates containing the compound at serially diluted concentrations. After agar hardened, plates were put in an incubator at 37° C. for 1.5-2 hours with the lids slightly open to evaporate acetone off the plates.
(§5) Test organisms were grown for 18 hours at 37° C. in Trypticase Soy broth and diluted in saline to approximately 10^6 colony forming units per ml. A loopful of each cell suspension was applied on the agar plate mentioned above and the plates were incubated for 18 hours at 37° C. before MIC was determined.
(§6) MIC values of the compounds described in Examples 1, 2 and 5 were determined as their sodium salts and the compound described in Example 4 was determined as a free carboxylic acid.
(In general: Agar dilution tests growth on a series of plates holding different concentrations.)

Series [2] relates to Pseudomonas aeruginosa EP-172. In words: Minimal inhibitory concentration, standard agar dilution method (Pseudomonas aeruginosa). It is filed as cell-based. The protocol:
as §1, §2, §3, §4, §5, §6

In a further series the test system is Proteus morganii EP-14. Briefly: Minimal inhibitory concentration, standard agar dilution method (Proteus morganii). The format is cell-based. Conditions: Morganella morganii. The protocol: as §1, §2, §3, §4, §5, §6
Another series has as its system Escherichia coli NIHJ. Briefly: Minimal inhibitory concentration, standard agar dilution method (Escherichia coli). The format is cell-based. The protocol:
as §1, §2, §3, §4, §5, §6

Series [3] relates to Klebsiella pneumoniae EK-6. In words: Minimal inhibitory concentration, standard agar dilution method (Klebsiella pneumoniae). The format is cell-based. The method, then: as §1, §2, §3, §4, §5, §6
Series [4] deals with Serratia marcescens ES-75. In words: Minimal inhibitory concentration, standard agar dilution method (Serratia marcescens). It is filed as cell-based. The method, then:
as §1, §2, §3, §4, §5, §6

Series [5] in a line: acute toxicity test (mouse, oral). Conditions: in vivo. From the text:
Moreover, it has been confirmed that the compounds of this invention show low toxicity in the toxicity test. For example, the acute toxicity values [LD50 (mouse, oral)] for the following compounds were over 5 g/kg: […]

Setting [6] is: Staphylococcus aureus 209P, agar dilution, 18 hours at 37° C., Examples 1, 2, 5 as sodium salts, Example 4 as free acid, read-out: MIC.
The mark [7] stands for this setting: EP172, Pseudomonas aeruginosa EP-172, agar dilution, 18 hours at 37° C., Examples 1, 2, 5 as sodium salts, Example 4 as free acid, read-out: MIC.
The mark [8] stands for this setting: EP14, Proteus morganii EP-14, agar dilution, 18 hours at 37° C., Examples 1, 2, 5 as sodium salts, Example 4 as free acid, read-out: MIC.
Where [9] appears, read: Escherichia coli NIHJ, agar dilution, 18 hours at 37° C., Examples 1, 2, 5 as sodium salts, Example 4 as free acid, read-out: MIC.
Where [10] appears, read: EK6, Klebsiella pneumoniae EK-6, agar dilution, 18 hours at 37° C., Examples 1, 2, 5 as sodium salts, Example 4 as free acid, read-out: MIC.
Where [11] appears, read: ES75, Serratia marcescens ES-75, agar dilution, 18 hours at 37° C., Examples 1, 2, 5 as sodium salts, Example 4 as free acid, read-out: MIC.

Where two headings read alike, the source gives them in different places.

In general, MIC refers to the lowest concentration found to suppress growth. For `CC(=O)OCC1=C(C(=O)O)N2C(=O)[C@@H](NC(=O)[C@H](NC(=O)c3coc4c(OC(C)=O)c(OC(C)=O)ccc4c3=O)c3ccccc3)[C@H]2SC1` [Example 4, 7β-[D-2-(7,8-Diacetoxychromone-3-carboxamido)-2-phenylacetamido]-3-acetoxymethyl-3-cephem-4-carboxylic acid], the MIC is 1.56 µg/mL in series [1] (setting [6]); 1.56 µg/mL in series [2] (setting [7]); 3.13 µg/mL in the series with Proteus morganii EP-14 (setting [8]); 0.8 µg/mL with Escherichia coli NIHJ (setting [9]); at most 0.1 µg/mL in series [3] (setting [10]); 0.8 µg/mL in series [4] (setting [11]).

Regarding `CC1=C(C(=O)O)N2C(=O)[C@@H](NC(=O)[C@H](N)c3ccccc3)[C@H]2SC1` [Cephalexin mono-hydrate, cephalexin monohydrate, reference compound], the MIC in series [1] (Staphylococcus aureus, 209P, 18 h) is 1.56 µg/mL; in series [2] (Pseudomonas aeruginosa, EP172, 18 h) it was over 100 µg/mL; in the series with Proteus morganii EP-14 (EP14, 18 h) it was over 100 µg/mL; against Escherichia coli NIHJ (Escherichia coli, 18 h), 6.25 µg/mL; in series [3] (Klebsiella pneumoniae, EK6, 18 h), 3.13 µg/mL; in series [4] (Serratia marcescens, ES75, 18 h), over 100 µg/mL.

Turning to `CC(=O)OCC1=C(C(=O)O)N2C(=O)[C@@H](NC(=O)[C@H](NC(=O)c3coc4c(O)c(O)ccc4c3=O)c3ccccc3)[C@H]2SC1` [Example 5, 7β-[D-2-(7,8-Dihydroxychromone-3-carboxamido)-2-phenylacetamido]-3-acetoxymethyl-3-cephem-4-carboxylic acid], the MIC was 1.56 µg/mL in series [1] (setting [6]); 1.56 µg/mL in series [2] (setting [7]); 12.5 µg/mL in the series with Proteus morganii EP-14 (setting [8]); 3.13 µg/mL in the series with Escherichia coli NIHJ (setting [9]); 0.2 µg/mL in series [3] (setting [10]); 1.56 µg/mL in series [4] (setting [11]).

Consider `CC(=O)OCC1=C(C(=O)O)N2C(=O)[C@@H](NC(=O)[C@H](NC(=O)c3coc4cc(OC(C)=O)c(OC(C)=O)cc4c3=O)c3ccccc3)[C@H]2SC1` [Example 1, 7β-[D-2-(6,7-Diacetoxychromone-3-carboxamido)-2-phenylacetamido]-3-acetoxymethyl-3-cephem-4-carboxylic acid], for which the MIC in series [1] (setting [6]) is 3.13 µg/mL; in series [2] (setting [7]) it was 0.8 µg/mL; in the series with Proteus morganii EP-14 (setting [8]) it was 50 µg/mL; with Escherichia coli NIHJ (setting [9]) it was 1.56 µg/mL; in series [3] (setting [10]), at most 0.1 µg/mL; in series [4] (setting [11]), 0.4 µg/mL.

Usually LD50 stands for the dose at which mortality reaches 50%. Turning to `CC(=O)OCC1=C(C(=O)O)N2C(=O)[C@@H](NC(=O)[C@H](NC(=O)c3coc4cc(O)c(O)cc4c3=O)c3ccccc3)[C@H]2SC1` [Example 2, 7β-[D-2-(6,7-Dihydroxychromone-3-carboxamido)-2-phenylacetamido]-3-acetoxymethyl-3cephem-4-carboxylic acid], the MIC was 1.56 µg/mL in series [1] (setting [6]); 0.8 µg/mL in series [2] (setting [7]); 12.5 µg/mL in the series on Proteus morganii EP-14 (setting [8]); 0.8 µg/mL with Escherichia coli NIHJ (setting [9]); at most 0.1 µg/mL in series [3] (setting [10]); 0.2 µg/mL in series [4] (setting [11]). Further, the LD50 in series [5] was over 5000 mg/kg.

Turning to `CC(=O)OCC1=C(C(=O)O)N2C(=O)[C@@H](NC(=O)[C@H](N)c3ccccc3)[C@H]2SC1` [Cephaloglycin, cephaloglycin, reference compound], the MIC in series [1] (setting [6]) is 0.8 µg/mL; in series [2] (setting [7]) it was over 100 µg/mL; with Proteus morganii EP-14 (setting [8]) it was 25 µg/mL; in the series on Escherichia coli NIHJ (setting [9]), 3.13 µg/mL; in series [3] (setting [10]), 1.56 µg/mL; in series [4] (setting [11]), over 100 µg/mL.
